The values below come from ChEMBL document CHEMBL4219088, “Novel 4-aminoquinazoline derivatives induce growth inhibition, cell cycle arrest and apoptosis via PI3Kα inhibition” (Bioorg Med Chem, 2018).

Molecules are shown by their SMILES. Active and inactive are the calls of the source. The calls are words filed in the database; no cut-off is given here.

Assay [1] relates to HCT-116. The assay is described as follows: Cell cycle arrest in human HCT116 cells assessed as accumulation at G2/M phase at 1 uM after 24 hrs by propidium iodide staining based flow cytometry (reference value: 22.24%). It counts as functional. On the technique in general: Flow cytometry measures light scatter and fluorescence of single cells or particles in a stream.
The subject of assay [2] is HCT-116. The assay is described as follows: Induction of apoptosis in human HCT116 cells assessed as increase in cleaved PARP level at 4 uM after 48 hrs by Western blot analysis. Type of assay: functional, cell-based. (In western blotting, separated proteins are transferred to a membrane and probed.)
Assay [3] has as its system HCT-116. Put plainly: Cell cycle arrest in human HCT116 cells assessed as accumulation at G0/G1 phase at 0.5 uM after 24 hrs by propidium iodide staining based flow cytometry (reference value: 44.01%). It counts as functional.
In assay [4] the test system is HCT-116. Put plainly: Induction of apoptosis in human HCT116 cells assessed as viable cells at 1 uM after 48 hrs by Annexin V-FITC/propidium iodide staining based flow cytometry (reference value: 94.06%). As to conditions: HCT-116, 48 h, read-out: Activity. Type of assay: functional.
The target in assay [5] is Phosphatidylinositol 4,5-bisphosphate 3-kinase catalytic subunit alpha isoform (Homo sapiens) (UniProt P42336). Put plainly: Inhibition of PI3Kalpha in human HCT116 cells assessed as reduction in Akt expression level at Ser473 residues at 1 uM after 8 hrs by DAPI staining based confocal microscopy. Type of assay: cell-based.
Assay [6] has as its system HCT-116. Put plainly: Induction of apoptosis in human HCT116 cells assessed as late apoptotic cells at 4 uM after 48 hrs by Annexin V-FITC/propidium iodide staining based flow cytometry (reference value: 1.43%). Type of assay: functional.
Assay [7] relates to HCT-116. Put plainly: Downregulation of CDK2 protein expression in human HCT116 cells at 0.5 to 2 uM after 24 hrs by Western blot analysis. It counts as functional, cell-based.
Assay [8] deals with HCT-116. Put plainly: Induction of apoptosis in human HCT116 cells assessed as late apoptotic cells at 1 uM after 48 hrs by Annexin V-FITC/propidium iodide staining based flow cytometry (reference value: 1.43%). Type of assay: functional.
Assay [9] deals with MCF7. Put plainly: Antiproliferative activity against human MCF7 cells after 72 hrs by sulforhodamine B assay. Type of assay: functional, cell-based. As to conditions: MCF7, 72 h.
Assay [10] deals with HCT-116. The assay is described as follows: Cell cycle arrest in human HCT116 cells assessed as accumulation at S phase at 0.5 uM after 24 hrs by propidium iodide staining based flow cytometry (reference value: 11.36%). Type of assay: functional.
Assay [11] has as its system HCT-116. Put plainly: Induction of apoptosis in human HCT116 cells assessed as necrotic cells at 2 uM after 48 hrs by Annexin V-FITC/propidium iodide staining based flow cytometry (reference value: 0.79%). It counts as functional.
For assay [12], the target named is PI3-kinase p110-delta/p85-alpha (Homo sapiens, UniProt O00329). Put plainly: Inhibition of recombinant N-terminal full length human PI3K p110delta/recombinant untagged full length human p85alpha expressed in baculovirus infected Sf21 insect cells by ELISA. (An ELISA detects its analyte on a solid surface through an enzyme-linked reagent.)
Assay [13] addresses Phosphatidylinositol 4,5-bisphosphate 3-kinase catalytic subunit alpha isoform (Homo sapiens) (UniProt P42336). Put plainly: Inhibition of PI3Kalpha in human HCT116 cells assessed as reduction in GSK3beta phosphorylation after 24 hrs by Western blot analysis. Type of assay: cell-based.
For assay [14] the target is unchanged. The assay is described as follows: Inhibition of PI3Kalpha in human HCT116 cells assessed as reduction in Akt phosphorylation at Ser473 residues after 24 hrs by Western blot analysis. It counts as cell-based.
In assay [15] the test system is HCT-116. Put plainly: Antiproliferative activity against human HCT116 cells after 72 hrs by sulforhodamine B assay. As to conditions: HCT-116, 72 h. It counts as functional, cell-based.

Sequence of Phosphatidylinositol 4,5-bisphosphate 3-kinase catalytic subunit alpha isoform (Homo sapiens) (P42336 whole entry, canonical isoform): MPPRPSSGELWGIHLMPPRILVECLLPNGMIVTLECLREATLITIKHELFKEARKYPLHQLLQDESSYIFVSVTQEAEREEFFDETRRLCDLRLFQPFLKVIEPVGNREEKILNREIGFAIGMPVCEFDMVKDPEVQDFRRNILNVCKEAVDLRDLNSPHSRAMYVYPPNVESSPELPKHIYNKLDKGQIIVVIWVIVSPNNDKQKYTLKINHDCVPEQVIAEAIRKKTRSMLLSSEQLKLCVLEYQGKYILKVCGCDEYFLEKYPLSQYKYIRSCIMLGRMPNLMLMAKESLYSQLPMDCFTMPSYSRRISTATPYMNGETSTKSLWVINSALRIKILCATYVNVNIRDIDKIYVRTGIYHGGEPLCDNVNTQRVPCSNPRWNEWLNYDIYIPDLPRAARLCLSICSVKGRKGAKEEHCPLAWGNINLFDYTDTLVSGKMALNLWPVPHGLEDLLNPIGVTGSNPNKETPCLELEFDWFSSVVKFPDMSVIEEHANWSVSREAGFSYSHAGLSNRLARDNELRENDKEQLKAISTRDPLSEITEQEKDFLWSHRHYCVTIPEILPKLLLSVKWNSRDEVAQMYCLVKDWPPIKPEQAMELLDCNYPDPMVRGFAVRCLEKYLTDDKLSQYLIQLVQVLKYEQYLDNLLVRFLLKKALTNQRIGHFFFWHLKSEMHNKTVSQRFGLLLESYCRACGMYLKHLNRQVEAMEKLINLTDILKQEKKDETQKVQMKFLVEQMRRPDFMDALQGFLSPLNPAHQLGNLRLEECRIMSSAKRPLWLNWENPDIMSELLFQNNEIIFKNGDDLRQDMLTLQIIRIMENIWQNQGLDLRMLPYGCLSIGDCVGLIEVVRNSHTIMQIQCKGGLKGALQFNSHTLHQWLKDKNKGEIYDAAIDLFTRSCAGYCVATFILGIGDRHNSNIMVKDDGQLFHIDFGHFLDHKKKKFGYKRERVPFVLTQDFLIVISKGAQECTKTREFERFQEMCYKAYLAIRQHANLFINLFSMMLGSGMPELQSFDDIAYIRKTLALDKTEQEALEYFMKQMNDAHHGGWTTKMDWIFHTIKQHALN
Sequence of PI3-kinase p110-delta/p85-alpha (P27986 whole entry, canonical isoform): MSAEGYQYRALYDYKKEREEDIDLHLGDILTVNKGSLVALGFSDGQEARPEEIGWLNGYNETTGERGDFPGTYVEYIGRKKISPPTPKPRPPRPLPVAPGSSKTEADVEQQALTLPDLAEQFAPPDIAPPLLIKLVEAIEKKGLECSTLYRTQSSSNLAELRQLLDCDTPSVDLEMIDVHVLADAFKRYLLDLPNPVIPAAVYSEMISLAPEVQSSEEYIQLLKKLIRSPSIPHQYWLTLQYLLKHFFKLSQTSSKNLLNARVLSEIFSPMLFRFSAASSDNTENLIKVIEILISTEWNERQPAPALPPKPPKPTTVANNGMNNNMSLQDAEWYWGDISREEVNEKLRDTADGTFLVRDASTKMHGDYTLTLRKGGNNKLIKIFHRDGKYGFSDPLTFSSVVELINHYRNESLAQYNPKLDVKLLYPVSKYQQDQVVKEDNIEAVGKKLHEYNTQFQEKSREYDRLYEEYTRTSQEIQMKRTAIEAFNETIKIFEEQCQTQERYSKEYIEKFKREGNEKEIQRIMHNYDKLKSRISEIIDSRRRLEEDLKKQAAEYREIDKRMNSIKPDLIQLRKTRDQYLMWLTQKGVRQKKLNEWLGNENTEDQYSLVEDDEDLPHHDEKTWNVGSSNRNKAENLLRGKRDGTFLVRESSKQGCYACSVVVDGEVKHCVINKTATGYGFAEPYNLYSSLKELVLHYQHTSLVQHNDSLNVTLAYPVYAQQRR
Sequence of PI3-kinase p110-delta/p85-alpha (O00329 whole entry, canonical isoform): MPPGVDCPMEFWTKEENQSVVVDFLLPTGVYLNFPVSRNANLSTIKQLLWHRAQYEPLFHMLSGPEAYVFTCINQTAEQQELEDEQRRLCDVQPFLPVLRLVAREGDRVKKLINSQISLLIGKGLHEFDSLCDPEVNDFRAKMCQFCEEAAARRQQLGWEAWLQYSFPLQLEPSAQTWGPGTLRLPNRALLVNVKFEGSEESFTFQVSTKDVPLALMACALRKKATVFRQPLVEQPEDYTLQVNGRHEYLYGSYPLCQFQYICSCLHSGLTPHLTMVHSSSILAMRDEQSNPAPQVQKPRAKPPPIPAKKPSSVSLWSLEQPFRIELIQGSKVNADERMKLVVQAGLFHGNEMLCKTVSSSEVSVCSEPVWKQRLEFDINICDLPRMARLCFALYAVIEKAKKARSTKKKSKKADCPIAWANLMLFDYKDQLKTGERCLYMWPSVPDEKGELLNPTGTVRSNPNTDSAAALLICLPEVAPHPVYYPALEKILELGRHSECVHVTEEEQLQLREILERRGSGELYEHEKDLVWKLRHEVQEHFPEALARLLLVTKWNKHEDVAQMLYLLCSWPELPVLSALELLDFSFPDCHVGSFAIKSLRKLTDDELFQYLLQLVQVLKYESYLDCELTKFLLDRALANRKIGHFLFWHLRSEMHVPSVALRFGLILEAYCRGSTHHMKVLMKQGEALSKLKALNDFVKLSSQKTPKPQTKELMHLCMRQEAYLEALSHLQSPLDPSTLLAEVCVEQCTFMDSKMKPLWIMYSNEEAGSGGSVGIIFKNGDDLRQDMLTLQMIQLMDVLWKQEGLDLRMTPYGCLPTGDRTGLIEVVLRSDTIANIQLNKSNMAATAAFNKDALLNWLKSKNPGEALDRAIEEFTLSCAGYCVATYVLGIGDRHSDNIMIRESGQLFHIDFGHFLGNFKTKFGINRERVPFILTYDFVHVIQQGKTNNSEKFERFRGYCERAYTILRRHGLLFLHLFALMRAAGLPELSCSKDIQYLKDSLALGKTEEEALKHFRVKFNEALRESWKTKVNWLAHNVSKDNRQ

The IC50 is the concentration that inhibits the measured activity by half. `CCCCS(=O)(=O)Nc1cc(-c2ccc3ncnc(NCCN(C)C)c3c2)cnc1OC`: the Activity in assay [1] is given as 15.33%; in assay [3], 46.16%; in assay [6], 4.6%; in [8] it was 2.89%; in assay [10] it was 10.3%; in assay [11] it was 1.39%. Besides, the outcome in assay [2] and in assay [7] was Active. For the same molecule, in assay [4], the viability at 1 µM amounted to 85.5%. In addition, the inhibition result in assay [5] was “Active”. For the same molecule, the values for the IC50 in [9], in assay [12] and in [15] were 3240 nM, 102 nM and 160 nM, respectively. Also, the inhibition result in assay [13] and in assay [14] was “Dose-dependent effect” in each case.
